Measurements from patent publication US10131652B2, “Pyrimidinyloxy benzene derivatives as herbicides” (E. I. DU PONT DE NEMOURS AND COMPANY, priority 2014, dated 2018).
Read-outs that look alike come from different tables or passages of the source.

Assays:
Assay in all cases: Test D pre-/postemergence plant response
Assay type in all cases: in vivo
[1] = tested on: galium (catchweed bedstraw, Galium aparine); conditions: Galium, pre-emergence, Preemergence
Summary of the method: (§1)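 Seeds were planted in a loam and sand blend and sprayed preemergence. In parallel, seedlings grown in peat moss/vermiculite medium were sprayed postemergence at 2 to 18 cm height. Both used a surfactant-containing non-phytotoxic solvent. Greenhouse ratings at 13 to 15 days used a 0–100 control scale.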

[2] = tested on: giant foxtail (Setaria faberii); conditions: Setaria faberi; for pest or weed control at 16 g/ha: 16 g ai/ha; for pest or weed control at 31 g/ha: 31 g ai/ha; for pest or weed control at 62 g/ha: 62 g ai/ha; for pest or weed control at 125 g/ha: 125 g ai/ha
Summary of the method: as §1

[3] = tested on: large (Lg) crabgrass (Digitaria sanguinalis); conditions: Digitaria sanguinalis; for pest or weed control at 16 g/ha: 16 g ai/ha; for pest or weed control at 31 g/ha: 31 g ai/ha; for pest or weed control at 62 g/ha: 62 g ai/ha; for pest or weed control at 125 g/ha: 125 g ai/ha
Summary of the method: as §1

[4] = tested on: oilseed rape (Brassica napus); conditions: Brassica napus; for plant injury at 31 g/ha: 31 g ai/ha; for plant injury at 62 g/ha: 62 g ai/ha
Summary of the method: as §1

[5] = tested on: pigweed (Amaranthus retroflexus); conditions: Amaranthus retroflexus; for pest or weed control at 31 g/ha: 31 g ai/ha; for pest or weed control at 62 g/ha: 62 g ai/ha; for pest or weed control at 125 g/ha: 125 g ai/ha
Summary of the method: as §1

[6] = tested on: ragweed (common ragweed, Ambrosia elatior); conditions: Ambrosia artemisiifolia; for pest or weed control at 31 g/ha: 31 g ai/ha; for pest or weed control at 62 g/ha: 62 g ai/ha; for pest or weed control at 125 g/ha: 125 g ai/ha
Summary of the method: as §1

[7] = tested on: yellow nutsedge (Cyperus esculentus); conditions: Cyperus; for pest or weed control at 31 g/ha: 31 g ai/ha; for pest or weed control at 62 g/ha: 62 g ai/ha; for pest or weed control at 125 g/ha: 125 g ai/ha
Summary of the method: as §1

[8] = post-emergence, Postemergence, scale 0 to 100 (0 no effect, 100 complete control), read-out: Foxtail, Giant plant response rating
[9] = post-emergence, Postemergence, scale 0 to 100, 0 no effect, 100 complete control, read-out: Plant response rating, Foxtail, Giant
[10] = pre-emergence, Preemergence, scale 0 to 100 (0 no effect, 100 complete control), read-out: Plant response rating, Foxtail, Giant
[11] = post-emergence, Postemergence, scale 0 to 100 (0 no effect, 100 complete control), read-out: Crabgrass, Large plant response rating
[12] = post-emergence, Postemergence, scale 0 to 100, 0 no effect, 100 complete control, read-out: Plant response rating, Crabgrass, Large
[13] = pre-emergence, Preemergence, scale 0 to 100 (0 no effect, 100 complete control), read-out: Plant response rating, Crabgrass, Large
[14] = pre-emergence, Preemergence, scale 0 to 100 (0 no effect, 100 complete control), read-out: Plant response rating, Oilseed Rape
[15] = post-emergence, Postemergence, scale 0 to 100, 0 no effect, 100 complete control, read-out: Plant response rating, Pigweed
[16] = pre-emergence, Preemergence, scale 0 to 100 (0 no effect, 100 complete control), read-out: Plant response rating, Pigweed
[17] = post-emergence, Postemergence, scale 0 to 100, 0 no effect, 100 complete control, read-out: Plant response rating, Ragweed
[18] = pre-emergence, Preemergence, scale 0 to 100 (0 no effect, 100 complete control), read-out: Plant response rating, Ragweed
[19] = post-emergence, Postemergence, scale 0 to 100, 0 no effect, 100 complete control, read-out: Plant response rating, Nutsedge, Yellow
[20] = pre-emergence, Preemergence, scale 0 to 100 (0 no effect, 100 complete control), read-out: Plant response rating, Nutsedge, Yellow

Molecule `Fc1cccc(Oc2ncc(Cl)cn2)c1-c1cc(C(F)F)no1` [Compound 144, 5-chloro-2-[2-[3-(difluoromethyl)-5-isoxazolyl]-3-fluorophenoxy]pyrimidine] has a pest or weed control at 125 g/ha ([1]; 125 g ai/ha, read-out: Plant response rating (scale 0 to 100), Galium) of 98%, a pest or weed control at 16 g/ha ([1]; 16 g ai/ha, scale 0 to 100 (0 no effect, 100 complete control), read-out: Plant response rating, Galium) of 95% and a pest or weed control at 31 g/ha ([1]; 31 g ai/ha, scale 0 to 100 (0 no effect, 100 complete control), read-out: Plant response rating, Galium) of 98%. For the same molecule, the pest or weed control at 62 g/ha ([1]; 62 g ai/ha, scale 0 to 100 (0 no effect, 100 complete control), read-out: Plant response rating, Galium) was 98%, the pest or weed control at 16 g/ha [2, 8] was 5% and the pest or weed control at 31 g/ha [2, 8] was 10%. The pest or weed control at 62 g/ha [2, 9] was 25%, the pest or weed control at 125 g/ha [2, 9] was 25% and the pest or weed control at 125 g/ha ([2]; pre-emergence, Preemergence, read-out: Plant response rating (scale 0 to 100), Foxtail, Giant) was 100%. It also gave a pest or weed control at 16 g/ha [2, 10] of 100%, a pest or weed control at 31 g/ha [2, 10] of 100% and a pest or weed control at 62 g/ha [2, 10] of 100%. It also gave a pest or weed control at 16 g/ha [3, 11] of 5%, a pest or weed control at 31 g/ha [3, 11] of 10% and a pest or weed control at 62 g/ha [3, 12] of 15%. The pest or weed control at 125 g/ha [3, 12] was 20%, the pest or weed control at 125 g/ha ([3]; pre-emergence, Preemergence, read-out: Plant response rating (scale 0 to 100), Crabgrass, Large) was 100% and the pest or weed control at 16 g/ha [3, 13] was 90%. For the same molecule, the pest or weed control at 31 g/ha [3, 13] was 98%, the pest or weed control at 62 g/ha [3, 13] was 100% and the plant injury at 31 g/ha ([4]; post-emergence, Postemergence, scale 0 to 100 (0 no effect, 100 complete control), read-out: Oilseed Rape plant response rating) was 80%. For the same molecule, the plant injury at 62 g/ha ([4]; post-emergence, Postemergence, scale 0 to 100, 0 no effect, 100 complete control, read-out: Plant response rating, Oilseed Rape) was 95%, the plant injury at 125 g/ha ([4]; pre-emergence, Preemergence, 125 g ai/ha, read-out: Plant response rating (scale 0 to 100), Oilseed Rape) was 100% and the plant injury at 16 g/ha ([4]; pre-emergence, Preemergence, 16 g ai/ha, scale 0 to 100 (0 no effect, 100 complete control), read-out: Plant response rating, Oilseed Rape) was 98%. For the same molecule, the plant injury at 31 g/ha [4, 14] was 100%, the plant injury at 62 g/ha [4, 14] was 100% and the pest or weed control at 31 g/ha ([5]; post-emergence, Postemergence, scale 0 to 100 (0 no effect, 100 complete control), read-out: Pigweed plant response rating) was 98%. It also gave a pest or weed control at 62 g/ha [5, 15] of 100%, a pest or weed control at 125 g/ha [5, 15] of 100% and a pest or weed control at 125 g/ha ([5]; pre-emergence, Preemergence, read-out: Plant response rating (scale 0 to 100), Pigweed) of 100%. For the same molecule, the pest or weed control at 16 g/ha ([5]; pre-emergence, Preemergence, 16 g ai/ha, scale 0 to 100 (0 no effect, 100 complete control), read-out: Plant response rating, Pigweed) was 100%, the pest or weed control at 31 g/ha [5, 16] was 100% and the pest or weed control at 62 g/ha [5, 16] was 100%. For the same molecule, the pest or weed control at 31 g/ha ([6]; post-emergence, Postemergence, scale 0 to 100 (0 no effect, 100 complete control), read-out: Ragweed plant response rating) was 60%, the pest or weed control at 62 g/ha [6, 17] was 70% and the pest or weed control at 125 g/ha [6, 17] was 75%. For the same molecule, the pest or weed control at 125 g/ha ([6]; pre-emergence, Preemergence, read-out: Plant response rating (scale 0 to 100), Ragweed) was 100%, the pest or weed control at 16 g/ha ([6]; pre-emergence, Preemergence, 16 g ai/ha, scale 0 to 100 (0 no effect, 100 complete control), read-out: Plant response rating, Ragweed) was 75% and the pest or weed control at 31 g/ha [6, 18] was 85%. For the same molecule, the pest or weed control at 62 g/ha [6, 18] was 100%, the pest or weed control at 31 g/ha ([7]; post-emergence, Postemergence, scale 0 to 100 (0 no effect, 100 complete control), read-out: Nutsedge, Yellow plant response rating) was 5% and the pest or weed control at 62 g/ha [7, 19] was 5%. It also gave a pest or weed control at 125 g/ha [7, 19] of 5%, a pest or weed control at 125 g/ha ([7]; pre-emergence, Preemergence, read-out: Plant response rating (scale 0 to 100), Nutsedge, Yellow) of 85% and a pest or weed control at 16 g/ha ([7]; pre-emergence, Preemergence, 16 g ai/ha, scale 0 to 100 (0 no effect, 100 complete control), read-out: Plant response rating, Nutsedge, Yellow) of 15%. For the same molecule, the pest or weed control at 31 g/ha [7, 20] was 30% and the pest or weed control at 62 g/ha [7, 20] was 50%.
